The text below walks through data of patent US12240825B2, “Oxexin 1 receptor antagonists” (Heptares Therapeutics Limited, priority 2019, dated 2025).

Structures are written as SMILES.

Assay [1] deals with rats. Particulars: cited from earlier work.
Assay [2] concerns rats. Particulars: cited from earlier work. The source holds these as a separate data set.
Assay [3] concerns rats. The conditions noted are these: intraperitoneal administration; cited from earlier work.
Assay [4] concerns rats. Particulars: sodium lactate infusion and CO2 challenge models; cited from earlier work.
Assay [5] has as its target T1, Human OX2 receptor (Homo sapiens (Human), UniProt O43614). Description: IPone accumulation assay, CHO cells expressing OX2. Type of assay: cell-based. Particulars: antagonism of orexin A (EC80 40 nM)-induced inositol phosphate turnover, read-out: fpKb average OX2 (converted). The method, then: Generation of CHO stable cell lines expressing the human OX1R and OX2R. Stable cell lines for the human OX1R and OX2R receptors were generated through the transfection of CHO cells using the transfection reagent Genejuice (Novagen number 70967) and cDNA coding for either the human OX1R or OX2R. Cells were cultured in Sigma Nutrient Mixture F-12 Ham media (catalog number N6658) supplemented with 10% heat-inactivated FBS. Forty-eight hours after transfection, cells were harvested and placed under geneticin selection by culturing in Sigma Nutrient Mixture F-12 Ham media supplemented with 10% heat-inactivated FBS and geneticin (ThermoFisher Catalog number: 10131035). Selection of the final stable clone for each receptor was made on the basis of receptor expression, assay signal to noise and robustness though increasing passage. Selected clones for the human OX1R and OX2R were then frozen down into liquid nitrogen using Cell Freezing Medium-DMSO (Sigma-Aldrich catalog number: C6164). IPone accumulation assay. A CHO cell line stably expressing either human OX1 or OX2 receptor was used with the IPone HTRF assay kit (CisBio: Part #62[…]) to measure receptor activation. The assay was optimised to measure the ability (potency; fpKb) of antagonists to reduce agonist (orexin A)-induced inositol phosphate turnover. Briefly, cells were plated onto half area 96-well white walled plates at a density of 12,500 cells/well. Sixteen hours post-plating cell growth media was replaced with antagonist concentration-response curve diluted in stimulation buffer (supplied with the kit). Cells were incubated in a humidified incubator (37° C.) for 30 min before an EC80 challenge concentration ( 20 nM (OX1) and 40 nM (OX2)) of orexin A (Tocris catalogue number 1455). After 30 min stimulation in a humidified incubator (37° C.) the assay was terminated by the addition of detection mixture as per manufacturer's instructions. The concentration of compound which reduced orexin-A stimulated turnover of inositol phosphates by 50% (IC50) was calculated by fitting to a four parameter sigmoidal dose response curve. The IC50 values were converted to fpKB values using the orexin A pEC50 value estimated on each plate as well as the challenge concentration interpolated from the orexin A control curve.

Assay [6] deals with T1, Human OX2 receptor. Description: [3H]-radioligand binding assay, OX2. The conditions noted are these: competition binding, membranes of SF21 cells, Ki by Cheng-Prusoff. The text has this:
(§1) Cloning, Baculovirus generation, large-scale infection of SF21 cells and membrane preparation. Human OX1 or OX2 receptor were cloned into Invitrogen's (ThermoFisher Scientific, UK) Bac-to-Bac Baculovirus Expression System. P0 baculovirus was generated by transfecting SF9 cells with bacmid DNA using Cellfectin® II transfection reagent (ThermoFisher Scientific, UK, Catalog number 10362-100). Following P0 generation P1 virus was then generated ready for large scale infection and membrane preparation. SF21 cells were grown in expression medium ESF921 (Expression Systems, USA, catalog number 96-001-01) supplemented with 10% heat-inactivated FBS and 1% Pen/Strep and were infected at a cell density of 2.5×10^6 cells/mL and a multiplicity of infection of 1.0 for both human OX1R and OX2R. Incubation was carried out at over 48 h in a shaking incubator set at 27° C. The cell culture was then centrifuged at 2,500 rcf for 10 min at 4° C. The pellets were resuspended in cold PBS supplemented with Roche's Complete EDTA-free protease inhibitor cocktail tablets (Roche Applied Sciences, catalog number 05056489001), 1 mM PMSF and 1 mM EDTA. The resuspended cell paste was then centrifuged at 3,273 rcf for 12 min at 4° C. The supernatant was discarded and the pellet frozen at −80° C. The cell pellet from a 4 L culture was resuspended in buffer containing 50 mM HEPES pH 7.5, 150 mM NaCl, 8 Roche EDTA-Free protease inhibitor cocktail tablets and 1 mM PMSF. The suspension was left stirring at rt for 1 h and then homogenised for 90 s at 9,500 rpm using a VDI 25 (VWR, USA) homogeniser. The cells were then lysed using a Microfluidiser processor M-110L Pneumatic (Microfluidics, USA) at 60 PSI and membranes collected by ultracentrifugation at 204.7 k×g for 1 h. The supernatant was discarded and the pellet was resuspended and homogenised in 90 s at 9,500 rpm in 50 mL (25 mL for each 2 L culture) of buffer containing 50 mM Hepes pH 7.5, 150 mM NaCl, 3 Roche EDTA-free protease inhibitor cocktail tablets and 1 mM PMSF. The resulting membranes were then stored at −80° C.
(§2) [^3H]-radioligand binding assay. After thawing, membrane homogenates were resuspended in the binding buffer (8.5 mM HEPES, pH 7.4, 1.3 mM CaCl2, 1.2 mM MgSO4, 118 mM NaCl, 4.7 mM KCl, 4 mM NaHCO3, 1.2 mM KH2PO4, 11 mM glucose) to a final assay concentration of 6.4 μg (OX1) or 1.4 μg (OX2) protein per well. Saturation isotherms were determined by the addition of various concentrations (0-30 nM) of [^3H]-4-(2,6-difluoro-4-methoxybenzyl)-2-(5,6-dimethoxypyridin-3-yl)-2H-1,2,4-benzothiadiazin-3(4H)-one 1,1-dioxide (Christopher et al, MedChemComm., 2015, 6, 947-955) in a total reaction volume of 250 μL for 90 min at rt. At the end of the incubation, membranes were filtered onto a 96-well GF/B filter pre-incubated with 0.5% polyethylenimine, with a Tomtec cell harvester and washed 5 times with 0.5 mL distilled water. Non-specific binding (NSB) was measured in the presence of 3.33 μM [4-(5-chloro-1,3-benzoxazol-2-yl)-7-methyl-1,4-diazepan-1-yl][5-methyl-2-(2H-1,2,3-triazol-2-yl)phenyl]methanone (Wertz et al, Angew. Chem. Int. Ed., 2011, 50, 11511-11515). Radioactivity on the filter was counted (1 min) on a Microbeta radiometric plate counter (Perkin Elmer) after addition of 50 μL of scintillation fluid (LabLogic: Part #SG-BXX-14). […] IC50 values were derived from the inhibition curve and the equilibrium dissociation constant (Ki) values were calculated using the Cheng-Prusoff equation.

Assay [7] has as its target T2, Human OX1 receptor (Homo sapiens (Human), UniProt O43613). The assay is described as follows: [3H]-radioligand binding assay, OX1. Particulars: competition binding, membranes of SF21 cells, Ki by Cheng-Prusoff.
Source text: as §1, §2

Assay [8] has as its target T2, Human OX1 receptor. Description: IPone accumulation assay, CHO cells expressing OX1. In kind it is cell-based. The conditions noted are these: antagonism of orexin A (EC80 ~20 nM)-induced inositol phosphate turnover, read-out: fpKb average OX1 (converted). As for the experimental part: Generation of CHO stable cell lines expressing the human OX1R and OX2R. Stable cell lines for the human OX1R and OX2R receptors were generated through the transfection of CHO cells using the transfection reagent Genejuice (Novagen number 70967) and cDNA coding for either the human OX1R or OX2R. Cells were cultured in Sigma Nutrient Mixture F-12 Ham media (catalog number N6658) supplemented with 10% heat-inactivated FBS. Forty-eight hours after transfection, cells were harvested and placed under geneticin selection by culturing in Sigma Nutrient Mixture F-12 Ham media supplemented with 10% heat-inactivated FBS and geneticin (ThermoFisher Catalog number: 10131035). Selection of the final stable clone for each receptor was made on the basis of receptor expression, assay signal to noise and robustness though increasing passage. Selected clones for the human OX1R and OX2R were then frozen down into liquid nitrogen using Cell Freezing Medium-DMSO (Sigma-Aldrich catalog number: C6164).
IPone accumulation assay. A CHO cell line stably expressing either human OX1 or OX2 receptor was used with the IPone HTRF assay kit (CisBio: Part #62IPAPEJ) to measure receptor activation. The assay was optimised to measure the ability (potency; fpKb) of antagonists to reduce agonist (orexin A)-induced inositol phosphate turnover. Briefly, cells were plated onto half area 96-well white walled plates at a density of 12,500 cells/well. Sixteen hours post-plating cell growth media was replaced with antagonist concentration-response curve diluted in stimulation buffer (supplied with the kit). Cells were incubated in a humidified incubator (37° C.) for 30 min before an EC80 challenge concentration (˜20 nM (OX1) and 40 nM (OX2)) of orexin A (Tocris catalogue number 1455). After 30 min stimulation in a humidified incubator (37° C.) the assay was terminated by the addition of detection mixture as per manufacturer's instructions. The concentration of compound which reduced orexin-A stimulated turnover of inositol phosphates by 50% (IC50) was calculated by fitting to a four parameter sigmoidal dose response curve. The IC50 values were converted to fpKB values using the orexin A pEC50 value estimated on each plate as well as the challenge concentration interpolated from the orexin A control curve.

T2 sequence (O43613 whole entry): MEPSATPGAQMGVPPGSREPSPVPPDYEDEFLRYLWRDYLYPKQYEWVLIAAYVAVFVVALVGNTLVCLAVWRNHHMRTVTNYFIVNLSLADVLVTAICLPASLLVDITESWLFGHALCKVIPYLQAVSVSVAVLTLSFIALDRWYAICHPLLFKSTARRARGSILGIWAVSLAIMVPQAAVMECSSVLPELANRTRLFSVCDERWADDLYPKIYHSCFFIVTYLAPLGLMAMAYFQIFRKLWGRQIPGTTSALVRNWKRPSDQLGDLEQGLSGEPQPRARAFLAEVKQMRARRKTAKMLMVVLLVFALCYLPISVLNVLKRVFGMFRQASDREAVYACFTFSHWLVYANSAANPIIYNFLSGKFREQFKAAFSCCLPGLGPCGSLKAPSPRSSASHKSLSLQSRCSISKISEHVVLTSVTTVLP
T1 sequence (O43614 whole entry): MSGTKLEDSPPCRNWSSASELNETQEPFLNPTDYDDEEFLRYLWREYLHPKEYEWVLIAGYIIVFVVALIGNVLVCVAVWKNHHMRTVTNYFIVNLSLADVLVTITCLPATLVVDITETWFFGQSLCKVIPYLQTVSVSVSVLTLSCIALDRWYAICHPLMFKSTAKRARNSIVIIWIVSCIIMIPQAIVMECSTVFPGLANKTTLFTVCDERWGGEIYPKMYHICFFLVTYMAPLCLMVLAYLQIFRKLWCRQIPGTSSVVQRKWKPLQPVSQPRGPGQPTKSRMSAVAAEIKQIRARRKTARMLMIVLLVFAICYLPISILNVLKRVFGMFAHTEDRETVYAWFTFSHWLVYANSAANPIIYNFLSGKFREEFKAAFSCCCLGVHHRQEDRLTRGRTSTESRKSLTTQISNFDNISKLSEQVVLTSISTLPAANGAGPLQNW

With `Cc1nc2ccc(NC(=O)Nc3ccnc4cccnc34)cc2o1` [SB-334867], the alcohol self-administration result in assay [1] was “decreases”. In assay [2], the nicotine self-administration entry is “decreases”. The opiate withdrawal symptoms entry in assay [3] is “significantly reduce”.
As to `O=C(c1cccc(F)c1-c1ncccn1)N1[C@@H]2CC[C@H]1[C@H](Nc1cnc(C(F)(F)F)cn1)C2` [JNJ-54717793], the “panic-like behaviours and cardiovascular responses” value in assay [4] is given as “attenuated”.
As for `CC(=O)Nc1cc(C(=O)N[C@H]2CCC[C@@H]2COc2ccc(F)cc2)c(-n2nccn2)cn1` [Example 23, 2-acetamido-N-[(1S,2S)-2-[(4-fluorophenoxy)methyl]cyclopentyl]-5-(triazol-2-yl)pyridine-4-carboxamide], the Kb in assay [5] is greater than 63.1 nM; in assay [8], 3.16 nM. The “pKi average OX2” value in assay [6] was 6.5. Also, the “pKi average OX1” value in assay [7] came to 8.9.
Turning to `CC(=O)Nc1ccc(-c2ncccn2)c(C(=O)N[C@H]2CCC[C@@H]2COc2ccc(F)cc2)n1` [Example 14, 6-acetamido-N-[(1S,2S)-2-[(4-fluorophenoxy)methyl]cyclopentyl]-3-pyrimidin-2-yl-pyridine-2-carboxamide], the Kb in assay [5] is greater than 398 nM; in assay [8], 3.98 nM. The “pKi average OX2” value in assay [6] was 6.0. Further, the “pKi average OX1” value in assay [7] is 8.3.
For the molecule `CC(=O)Nc1ccc(-n2nccn2)c(C(=O)N[C@H]2CCC[C@@H]2COc2ccc(F)cc2F)n1` [Example 17, 6-acetamido-N-[(1S,2S)-2-[(2,4-difluorophenoxy)methyl]cyclopentyl]-3-(triazol-2-yl)pyridine-2-carboxamide], the Kb in assay [5] was greater than 63.1 nM; in assay [8], 50.1 nM. Further, the “pKi average OX2” value in assay [6] is on record as 5.4. Besides, the “pKi average OX1” value in assay [7] worked out at 9.1.
As for `CC(=O)Nc1cnc(-n2nccn2)c(C(=O)N[C@H]2CCC[C@@H]2COc2ccc(F)cc2)c1` [Example 25, 5-acetamido-N-[(1S,2S)-2-[(4-fluorophenoxy)methyl]cyclopentyl]-2-(triazol-2-yl)pyridine-3-carboxamide], the values for the Kb in assay [5] and in assay [8] were greater than 631 nM and 3.98 nM, respectively. In assay [6], the “pKi average OX2” value is given as 5.5. Besides, the “pKi average OX1” value in assay [7] turned out to be 8.5.
For `Nc1ccc(-n2nccn2)c(C(=O)N[C@H]2CCC[C@@H]2COc2ccc(F)cc2)n1` [Example 4, 6-amino-N-[(1S,2S)-2-[(4-fluorophenoxy)methyl]cyclopentyl]-3-(triazol-2-yl)pyridine-2-carboxamide] the same measures were greater than 1260 nM, 10 nM, 5.9 and 8.0.
For `CC(=O)Nc1ccc(-n2nccn2)c(C(=O)N[C@H]2CCC[C@@H]2COc2ccc(F)cn2)n1` [Example 26, 6-acetamido-N-[(1S,2S)-2-[(5-fluoro-2-pyridyl)oxymethyl]cyclopentyl]-3-(triazol-2-yl)pyridine-2-carboxamide] the same measures were greater than 1000 nM, 316 nM, less than 5.1 and 7.9.
In the case of `CC(=O)Nc1ccc(-n2nccn2)c(C(=O)N(C(C)C)[C@H]2CCC[C@@H]2COc2ccc(F)cc2)n1` [Example 7, 6-acetamido-N-[(1S,2S)-2-[(4-fluorophenoxy)methyl]cyclopentyl]-N-isopropyl-3-(triazol-2-yl)pyridine-2-carboxamide], the Kb in assay [5] was greater than 794 nM; in assay [8], 25.1 nM. Moreover, the “pKi average OX2” value in assay [6] is given as less than 5.3. For the same molecule, in assay [7], the “pKi average OX1” value is on record as 8.1.
